Laboratory results from PubChem BioAssay (NCI).
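Compound exposure: 48 hours, 5 concentrations, 96-well plates. Here, GI50 denotes the concentration required for 50% inhibition of growth. The concentration for full growth arrest is given as TGI.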

How the values were obtained:
Experiment in all cases: NCI tumour cell line growth inhibition, 48 h
HCC-2998 colon = tested on: HCC-2998 colon
SNB-75 CNS = tested on: SNB-75 CNS
K-562 leukemia = tested on: K-562 leukemia
786-0 renal = tested on: 786-0 renal
EKVX NSCLC = tested on: EKVX NSCLC
ACHN renal = tested on: ACHN renal
NCI-H226 lung = tested on: NCI-H226 lung
SF-295 CNS = tested on: SF-295 CNS
BT-549 breast = tested on: BT-549 breast
SK-MEL-2 melanoma = tested on: SK-MEL-2 melanoma

Compound | TGI (HCC-2998 colon) [µM] | TGI (SNB-75 CNS) [µM] | TGI (K-562 leukemia) | TGI (786-0 renal) | TGI (EKVX NSCLC) | TGI (ACHN renal) | TGI (NCI-H226 lung) | TGI (SF-295 CNS) | GI50 (HCC-2998 colon) [µM] | GI50 (BT-549 breast) | TGI (BT-549 breast) | GI50 (K-562 leukemia) | GI50 (786-0 renal) | GI50 (SK-MEL-2 melanoma) | TGI (SK-MEL-2 melanoma) | GI50 (EKVX NSCLC) | GI50 (ACHN renal) | GI50 (NCI-H226 lung) | GI50 (SF-295 CNS) | GI50 (SNB-75 CNS) [µM]
O=C1C=C(O)c2[nH]c(=O)ccc2C1=O | > 100 | > 100 | > 100 µM | > 100 µM | > 100 µM | > 100 µM | > 100 µM | > 100 µM |  |  |  |  |  |  |  |  |  |  |  | 
C=C(CN1CCc2ccccc2C1)c1ccc(C(=O)Nc2ccccc2N)cc1 | 0.379 |  | > 11.3 µM | 11.6 µM | > 50 µM | 3.5 µM | 9.2 µM | 3.53 µM | 0.0899 | 1.69 µM | 6.16 µM | 2.32 µM | 1.53 µM | 3.16 µM | 19.1 µM | 5.68 µM | 1.01 µM | 1.49 µM | 1.27 µM | 
Cc1cc(N(CCC#N)CCC#N)ccc1/C=C1N=C(/C=C/c2ccccc2)OC(=O)N\1 | > 100 | > 100 | > 100 µM | > 100 µM | > 100 µM | > 100 µM | > 100 µM | 41.3 µM |  |  |  |  |  |  | > 100 µM |  |  |  |  | 
C[C@H]1[C@H](C)CC[C@]2(C(=O)NCCNCCN)CC[C@]3(C)C(=CC[C@@H]4[C@@]5(C)CCC(=O)C(C)(C)[C@@H]5CC[C@]43C)[C@H]12 | 3.07 |  | 5.35 µM | 3.18 µM | 3.02 µM | 3.27 µM | 45.5 µM |  | 1.66 | 6.45 µM | 24.1 µM | 2.23 µM | 1.74 µM | 1.98 µM | 4.29 µM | 1.58 µM | 1.76 µM | 14.8 µM |  | 
COc1ccc(Nc2nc3ccccc3nc2-c2cccs2)cc1 | > 100 | 82.2 | > 100 µM | > 100 µM | > 100 µM | > 100 µM | > 100 µM | > 100 µM |  |  |  |  |  |  | > 100 µM |  |  |  |  | 
CC1(c2ccccc2)CC(c2ccccc2)=NO1 (stereo not drawn) | > 100 | > 100 | > 100 µM | > 100 µM | > 100 µM | > 100 µM | > 100 µM | > 100 µM |  |  |  |  |  |  | > 100 µM |  |  |  |  | 
CC(C)c1ccccc1NC(=O)/C(Cl)=C1/Sc2ccccc2NC1=O | 93.3 | 87.9 | > 100 µM | > 100 µM | > 100 µM | > 100 µM | > 100 µM |  |  |  |  |  |  |  | 37.8 µM |  |  |  |  | 
CCOC(=O)/C(=C/c1cccc(OC)c1)N(CC)CC |  |  | > 100 µM | > 100 µM | > 100 µM | > 100 µM | > 100 µM | > 100 µM |  |  |  |  |  |  | > 100 µM |  |  |  |  | 
O=C(NC12CC3CC(CC(C3)C1)C2)C(=O)c1c[nH]c2ccc(Cl)cc12 | > 100 | 52.1 | > 100 µM | 34.6 µM | > 100 µM | > 100 µM | > 100 µM | 65.2 µM |  |  |  |  |  |  | 89.4 µM |  |  |  |  | 
NC(N)=NS(=O)(=O)c1ccc(NC(=O)c2cccc3c(Nc4ccc(S(N)(=O)=O)cc4)c4ccccc4nc23)cc1 | > 100 | > 100 | > 100 µM | > 100 µM | > 100 µM | > 100 µM |  | > 100 µM |  |  |  |  |  |  | > 100 µM |  |  |  |  | 
O=c1c(Cl)c(Cl)cnn1CCc1ccncc1 | 27.9 | 33.2 | > 100 µM | 59.6 µM | 36.2 µM | 33.4 µM | 84.1 µM | 83 µM |  |  |  |  |  |  | 39.7 µM |  |  |  |  | 
OC(CN1CC1)C(O)CN1CC1 (stereo not drawn) |  |  | > 50 µg/mL | > 50 µg/mL | > 50 µg/mL | > 50 µg/mL | > 50 µg/mL | > 50 µg/mL |  | > 50 µg/mL | > 50 µg/mL | > 50 µg/mL | > 50 µg/mL | > 50 µg/mL | > 50 µg/mL | > 50 µg/mL | > 50 µg/mL | > 50 µg/mL | > 50 µg/mL | 
CNC(SC)=C1C(=O)OC(C)(C)OC1=O | > 100 | > 100 | > 100 µM | > 100 µM | > 100 µM | > 100 µM | > 100 µM | > 100 µM |  |  |  |  |  |  | > 100 µM |  |  |  |  | 
NC(=O)/C=C/C(=O)O |  | > 5000 | > 5000 µM | > 5000 µM |  | > 5000 µM | > 5000 µM | > 5000 µM |  |  |  |  |  |  | > 5000 µM |  |  |  |  | 
CC(=O)[O-].CC(=O)[O-].CC(=O)[O-].CC(=O)[O-].[Mo+2].[Mo+2] | > 100 | > 100 | > 100 µM | > 100 µM | > 100 µM | > 100 µM | > 100 µM | > 100 µM | > 100 |  |  | > 100 µM | > 100 µM | > 100 µM | > 100 µM | > 100 µM | > 100 µM | > 100 µM | > 100 µM | 63.5
CCCCCCCCCCCCCC(=O)OCC1OC(=O)CC1O (stereo not drawn) | > 100 | > 100 | 61.5 µM | > 100 µM | > 100 µM | > 100 µM |  | > 100 µM |  |  |  |  |  |  | > 100 µM |  |  |  |  | 
COC(=O)/C(C#N)=C1\CCC(C(=O)OC)N1C (stereo not drawn) | > 100 | > 100 | > 100 µM | > 100 µM | > 100 µM |  |  | > 100 µM |  |  |  |  |  |  | > 100 µM |  |  |  |  | 
CCSc1nc(N)c2cn[nH]c2n1 |  |  | > 100 µM | > 100 µM | > 100 µM | > 100 µM | 57.1 µM | 85.3 µM |  | 52.1 µM | > 100 µM | 37.3 µM | 40.2 µM | 47.3 µM | > 100 µM | 51.4 µM | 31.3 µM | 16.9 µM | 32.1 µM | 
CC(=O)OCC1OC(n2cc([N+](=O)[O-])c(=O)[nH]c2=O)C(OC(C)=O)C(OC(C)=O)C1OC(C)=O (stereo not drawn) | > 100 | > 100 | > 100 µM | > 100 µM | > 100 µM | > 100 µM | > 100 µM | > 100 µM |  |  |  |  |  |  | > 100 µM |  |  |  |  | 
COc1c(Br)cc(Br)c(OC)c1-c1[nH]c(Br)c(Br)c1Br | 19.2 | 17.6 | 15 µM | 22.8 µM | 21.1 µM | 17.1 µM | 25.8 µM | 17.4 µM |  |  |  |  |  |  | 13.7 µM |  |  |  |  | 
Cc1nnc(N/N=C(/C(=O)C(C#N)c2ccccc2)C(C#N)c2ccccc2)n1N (stereo not drawn) | 11 | 34.7 | 27.9 µM | 25 µM | > 100 µM | 65.5 µM | > 61.7 µM | 13.7 µM |  |  |  |  |  |  | 12.5 µM |  |  |  |  | 
